Experimental data as given in paper PMC4361473, “A New System for Profiling Drug-Induced Calcium Signal Perturbation in Human Embryonic Stem Cell–Derived Cardiomyocytes” (Journal of Biomolecular Screening, 2015).

Experiments:
Cytiva hSCCMs [1] = test: SALVO profiling of drug-evoked Ca2+ signal perturbation (fluo-4 confocal imaging); details: for EC20 AHI: 20% change from control in amplitude heterogeneity index; for EC20 AHI / EC20 Synch / EC20 ITN / EC20 THI / EC20 Rate: regression of Figure 3 data; for EC20 Synch: 20% change from control in intercellular synchronization; for EC20 ITN: 20% change from control in intertransient noise; for EC20 THI: 20% change from control in temporal heterogeneity index; for EC20 Rate: drug concentration producing a 20% change from control (no drug) in Ca2+ oscillation rate; for SALVO toxicity score, rank order of the extent of Ca2+ perturbation: five-parameter SALVO output integrated over 0.1-1000 nM, normalized to control; for Effect on Ca2+ handling (SALVO parameters): spontaneously oscillating Cytiva, concentrations up to 30 µM
Text: Cytiva hSCCMs were derived from monolayer differentiation of an H7 hESC cell line that had been expanded under feeder-free conditions and then subjected to a proprietary differentiation protocol (GE Healthcare, Piscataway, NJ, USA).[13] […] Cells were thawed and seeded into 7-mm^2 chambers created by the adherence of silicon gaskets (CultureWell MultiWell 3 mm in diameter, 1-mm-depth inserts [Life Technologies]) on glass-bottomed culture chambers (In Vitro Scientific, Sunnyvale, CA, USA) that had been precoated with Matrigel (BD Biosciences, Franklin Lakes, NJ, USA), Franklin Lakes, NJ, USA diluted 1:30 (v/v) in Knockout DMEM (Life Technologies, Carlsbad, CA, USA). […] Cells were allowed to adhere to the coverslip for 2 h before the dish was filled with RPMI/B27 (2 mL). Medium was exchanged every 48 h.
Cells were incubated with fluo-4 AM (5 µM) (Life Technologies) for 1 h at 37°C before coverslips were flooded with RPMI/B27 (2 mL). […] Cells were maintained at 37 °C throughout experiments. […] The application of caffeine (5 mM final concentration) was used to trigger sarcoplasmic reticulum (SR) Ca^2+ release and thereby estimate the intra-SR Ca^2+ store load.
Taking our lead from Uhlen’s method of using spectral analysis to investigate the organization of Ca^2+ signals,[14] we developed SALVO to decode the spatiotemporal patterning of Ca^2+ oscillations within individual cells and across multicellular populations. SALVO outputs 30 parameters that describe Ca^2+ signal organization,[15] but for the purposes of this study, we focused on five parameters: oscillation rate (rate, Hz) and four other parameters that quantify the amplitude and temporal patterning of Ca^2+ oscillation: (1) amplitude heterogeneity index (AHI) and (2) temporal heterogeneity index (THI), statistical assessments of signal amplitude and temporal variability within single cells, respectively; (3) intertransient noise (ITN), defined as the Ca^2+ signal variability occurring between Ca^2+ oscillations and that extends the use of signal variability (SV) to measure point-by-point differences in very low-amplitude Ca^2+ signals[6],[10],[12]; and (4) synchronization, an index of the temporal coincidence of Ca^2+ oscillation maxima occurring across cells in the population. The calculation of these parameters is described in Supplementary Figure S1. SALVO is implemented using a Python-based computer program.[15] The detection of signal maxima and minima over a 30-s period in data obtained from 6 to 20 cells in each instance was performed using SALVO’s autodetection algorithms (based on spline detect or threshold detection methods) or by manual assignation of the start, peak, and end of each Ca^2+ spike. SALVO outputs were archived and interrogated using a custom-built SQL-based database system (DB Miner, CHG, NCS, SBJ).
Baseline assessments of Ca^2+ signals in fluo-4–loaded cells prior to the addition of drug (control) were established as described above.
After each addition and following a period of equilibration (approximately 90 s), fluo-4–dependent Ca^2+ signals were acquired for 30 s. Using this protocol, the same population of cells was imaged throughout the entire drug addition sequence.
In all experiments, operators were blinded to the identities of the drugs under test throughout all phases of postexperimental data analysis.
Supplementary Table 2. EC20 values for Ca2+ perturbation.
Drug concentrations (nM) that produced a 20% change from control values (no drug) were calculated for each SALVO parameter from regression analysis of […]
The effective therapeutic plasma concentration of free drug (ETPCunbound, nM) was calculated in Supplementary Table 1.
Calculate percentage effect size (E) for each SALVO parameter, normalized to Ew = E x λ control conditions, at each drug concentration Effect size (E,%) λ
Cumulative Ew for drug concentrations of 0.1, 1, 10, 100 and 1000 nM for The relationship between E and λ is given by […]

[2] = categories assigned by Redfern and colleagues; cited from earlier work
[3] = maximal effective therapeutic plasma concentration; ref Redfern et al. (2003) Cardiovasc. Res. 58:32-45; cited from earlier work
[4] = set-up: method as in DrugBank (www.drugbank.ca); details: from drug-protein binding values; ref DrugBank (www.drugbank.ca); cited from earlier work
Cytiva hSCCMs [5] = test: Whole-cell current-clamp recording of spontaneous action potentials (APD90); format: cell-based, human; details: drug at EC20 concentration, 3 min; Fridericia-corrected; blebbistatin-immobilized cells
Description: Cells in 35-mm glass-bottomed culture dishes containing a superfusion insert (AutoMate PCP-1; Digitimer Ltd., Welwyn Garden City, UK) were mounted on the stage of an inverted microscope (CKX-41; Olympus, Tokyo, Japan) and were superfused with normal Tyrode (NT) solution (containing [in mM] NaCl, KCl, MgCl2 [1], CaCl2 [2], HEPES [10], glucose; pH 7.4 with NaOH) or NT-containing drugs maintained at 37 °C using a heated jacket.
Cells were whole-cell clamped with 3- to 4-MΩ patches and an intrapipette solution (containing in [mM] KCl, MgCl2 [1.75], CaCl2 [5.37], EGTA [10], HEPES [10], and Na2ATP [4]; pH 7.2 with KOH) in current-clamp (IC) mode using a CV-7B headstage and MultiClamp 700B amplifier controlled by MultiClamp software (Molecular Devices, Sunnyvale, CA). Data were digitized and acquired using a Digidata 1322a card and pClamp software, respectively (Molecular Devices). Action potentials were sampled at a rate of 20 kHz and low pass (Bessel) filtered at 10 kHz.
Spontaneous cell contracture was terminated using blebbistatin (5 µM, 10 min), an agent that inhibits myofilament shortening and thereby negates patch-clamp recording instability but preserves normal Ca^2+ cycling.[20] […] Action potential (AP) recordings from blebbistatin-immobilized cells were taken under control (no-drug) conditions (1 min) and following the switch to drug-containing NT. APD90, corrected for AP cycle length using Fridericia’s method (APD90(corr) = APD90/cycle length^[…]), was calculated from five consecutive APs following a 3-min exposure of the cells to drug.
Figure 4. Investigating the effect of cardiovascular-active drugs on Cytiva APD90. (A) Cells were exposed to drugs at EC20 concentrations for 3 min (Suppl. Table S2). APD90 values were corrected for beat period using Fridericia’s algorithm. Data points represent individual paired experiments (n = 6). Representative control (gray) and drug-treated (black) action potential traces are shown. (B) APD90 plotted as the percentage change relative to the paired control value (no drug). *p < 0.05. **p < 0.01.

[6] = Effective therapeutic plasma concentration (ETPC, ETPCunbound); format: in vivo, human
Text: There is also the issue regarding the relevance of drug potency determined in vitro to clinical dosing in humans. Guo and colleagues[25],[27] used an impedance-derived index of arrhythmic beating in hSCCMs to derive a predicted proarrhythmic score (PPS) that took into account the therapeutically relevant total concentration of drug in human plasma (defined as Ceff). More recently, Clements and Thomas[13] used a similar approach to generate a predictive risk score (PRS) based on their measurement of field potential duration (FPD) in Cytiva.
Supplementary Table 1. Calculating the free plasma concentration of […]
described by Redfern et al. (Redfern et al. (2003) Cardiovasc. Res. 58:32-45) was used to calculate the levels of free drug (ETPCunbound). ETPC for nadolol and valdecoxib were from Krukemyer et al. (Pharm. Res. (1990) 9:953-956) and Yuan et al. (Drug Metab. Disp. (2002) 30:1013-1021), respectively. The values for drug-protein binding were obtained from DrugBank (www.drugbank.ca).

hSCCM = test system: hSCCM; set-up: method as in PMID 24052561; details: cited from earlier work
[7] = free plasma concentration calculated from ETPC and free drug %, Supplementary Table 1

Compound | EC20 AHI (Cytiva hSCCMs [1]) [nM] | EC20 Synch (Cytiva hSCCMs [1]) [nM] | EC20 ITN (Cytiva hSCCMs [1]) [nM] | EC20 THI (Cytiva hSCCMs [1]) [nM] | Predicted proarrhythmic score (PPS) (Cytiva hSCCMs [1]; PPS = ETPCunbound/EC20) | EC20 Rate (Cytiva hSCCMs [1]) [nM] | SALVO toxicity score, rank order of the extent of Ca2+ perturbation (Cytiva hSCCMs [1]) | Effect on Ca2+ handling (SALVO parameters) (Cytiva hSCCMs [1]) | TdP risk category [2] | ETPC [3] [nM] | Free drug [4] [%] | Effect on APD90 (action potential duration) (Cytiva hSCCMs [5]) | ETPCunbound ([6]; effective therapeutic plasma concentration of free drug, as listed in Supplementary Table 2) [nM] | ETPCunbound [6, 7] [nM] | PPS rank order (Cytiva hSCCMs [1]; PPS = ETPCunbound/EC20) | Hazard identification by impedance measurements (hSCCM)
COc1ccc(CCN2CCC(Nc3nc4ccccc4n3Cc3ccc(F)cc3)CC2)cc1 [Astemizole, astemizole] | 100 | 15 | 320 | 55 | < 1 | 50 | astemizole > thioridazine > cisapride > flecainide > valdecoxib > sotalol > nadolol | large effect sizes in multiple parameters | category 2 | 8 | 2 | increased APD90 | 8 | 0.2 | – | –
COc1cc(N)c(Cl)cc1C(=O)NC1CCN(CCCOc2ccc(F)cc2)CC1OC (centres unmarked) [Cisapride, cisapride] | 40 | 5 | > 30000 | 105 | – | 445 | astemizole > thioridazine > cisapride > flecainide > valdecoxib > sotalol > nadolol | large effect sizes in multiple parameters | category 2 | 129 | 2 | increased APD90 | – | 3 | thioridazine > cisapride > valdecoxib | –
CS(=O)(=O)c1ccc(C2=C(c3ccccc3)C(=O)OC2)cc1 [rofecoxib] | – | – | – | – | – | – | – | inconsistent bioactivity | – | – | – | – | – | – | – | failed to identify the potential hazard
